From patent US10464925B2, “Methods to induce targeted protein degradation through bifunctional molecules” (Dana-Farber Cancer Institute, Inc., priority 2015, dated 2019)
Read-outs that look alike come from different tables or passages of the source. Values belong to the compound of their own block, whether it stands above or below them.

How the values were obtained:
CRBN-DDB1 = target: T1, CRBN-DDB1 (Homo sapiens, UniProt Q96SW2); assay: CRBN-DDB1 Ligand-Displacement AlphaScreen Assay (thalidomide competition); format: binding; conditions: read-out: CRBN alpha IC50;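 also: streptavidin donor and nickel chelate acceptor bead proximity signal after 30 min incubation, normalized with no-protein background as 0% and DMSO wells as 100% activity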
T1 construct: 6xHis (given for the complex); made in house; host or cells: Sf9 cells (Invitrogen), pFastBac

[1] = system: IKZF1 adjoined to nanoluciferase (Nluc); assay: IKZF1 Dual Luciferase Assay; format: cell-based; parameters: Nluc/Fluc IKZF1 Max Degradation: unit: %; conditions: 293 FT cells, 4 hours; for IC50: read-out: Nluc/Fluc IKZF1 IC50
797 = assay: Cell viability, 797 cells (Table 4); format: cell-based; conditions: read-out: IC50 (nM) 797
[2] = target: T2, BRD4 adjoined to nanoluciferase (Nluc) (Homo sapiens, UniProt O60885+Q96SW2); assay: BRD4 Dual Luciferase Assay; format: cell-based; conditions: for Emax: BRD4 remaining at Emax, read-out: BRD4− Emax (percent remaining);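 as to all read-outs here: transduced reporter cells exposed to compound for 4 h, then Nluc and Fluc luminescence read, each normalized to DMSO controls and expressed as Nluc/Fluc ratio per well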
T2 construct: expressed in transfected cells

[3] = read-out: BRD4 max degradation(%) Dual Luciferase
[4] = 4 hours, read-out: max degradation (dual luc)

Compound: Cc1sc2c(c1C)C(c1ccc(Cl)cc1)=N[C@@H](CC(=O)NCCOCCOCCOc1cccc3c1C(=O)N(C1CCC(=O)NC1=O)C3=O)c1nnc(C)n1-2 (stereo partly drawn) [dBET40]
IC50 797: 299 nM
Dmax [2, 3]: < 10%

Compound: Cc1sc2c(c1C)C(c1ccc(Cl)cc1)=N[C@@H](CC(=O)NCCOCCOc1cccc3c1C(=O)N(C1CCC(=O)NC1=O)C3=O)c1nnc(C)n1-2 (stereo partly drawn) [dBET27]
Conc@Emax [2]: 0.5 µM
Dmax [2, 4]: 30%
Emax [2]: 67.3%
Dmax [2, 3]: 30%

Compound: O=C1CCC(N2C(=O)c3ccc([N+](=O)[O-])cc3C2=O)C(=O)N1 [Compound D-2, 2-(2,6-dioxopiperidin-3-yl)-5-nitroisoindoline-1,3-dione]
IC50 (CRBN-DDB1): 4130 nM
IC50 [1]: > 50000 nM

Compound: Nc1cccc2c1C(=O)N(C1CCC(=O)NC1=O)C2=O [Compound D-4, 4-amino-2-(2,6-dioxopiperidin-3-yl)isoindoline-1,3-dione]
Nluc/Fluc IKZF1 Max Degradation [1]: 66.43

Compound: Cc1sc2c(c1C)C(c1ccc(Cl)cc1)=N[C@@H](CC(=O)NCCCCCCCCOc1cccc3c1C(=O)N(C1CCC(=O)NC1=O)C3=O)c1nnc(C)n1-2 (stereo partly drawn) [dBET21]
IC50 797: 630 nM
Emax [2]: 78.1%
Dmax [2, 3]: 21%

Compound: Cc1sc2c(c1C)C(c1ccc(Cl)cc1)=N[C@@H](CC(=O)NCCOCCOCCNC(=O)COc1cccc3c1C(=O)N(C1CCC(=O)NC1=O)C3=O)c1nnc(C)n1-2 (stereo partly drawn) [dBET24]
Conc@Emax [2]: 5 µM
Dmax [2, 4]: 50.4%
Emax [2]: 43%
Dmax [2, 3]: 50%

Compound: COc1cc(C(=O)NCCCCNC(=O)COc2cccc3c2C(=O)N(C2CCC(=O)NC2=O)C3=O)ccc1Nc1ccc2c(n1)N(C1CCCC1)[C@H](C)C(=O)N2C (stereo partly drawn) [dBET16]
IC50 797: 4900 nM

Compound: COC(=O)C[C@@H]1N=C(c2ccc(Cl)cc2)c2c(sc(C)c2C(=O)NCCCCNC(=O)COc2cccc3c2C(=O)N(C2CCC(=O)NC2=O)C3=O)-n2c(C)nnc21 (stereo partly drawn) [dBET25]
IC50 797: 6860 nM
Dmax [2, 4]: 41.7%
Dmax [2, 3]: 42%

Compound: Cc1sc2c(c1C)C(c1ccc(Cl)cc1)=N[C@@H](CC(=O)NCCCCNC(=O)Cc1cccc3c1C(=O)N(C1CCC(=O)NC1=O)C3=O)c1nnc(C)n1-2 (stereo partly drawn) [dBET36]
IC50 797: 725 nM

Compound: Cc1nc2cccc(N)c2c(=O)n1C1CCC(=O)NC1=O [Compound D-17, 3-(5-amino-2-methyl-4-oxoquinazolin-3(4H)-yl)piperidine-2,6-dione]
Nluc/Fluc IKZF1 Max Degradation [1]: 67.59

Compound: C[C@@]1(N2C(=O)c3cccc(O)c3C2=O)CCC(=O)NC1=O [Compound D-52, (R)-4-hydroxy-2-(3-methyl-2,6-dioxopiperidin-3-yl)isoindoline-1,3-dione]
IC50 (CRBN-DDB1): 39500 nM

Compound: Cc1sc2c(c1C)C(c1ccc(Cl)cc1)=N[C@@H](CC(=O)NCCCCC(=O)Nc1cccc3c1CN(C1CCC(=O)NC1=O)C3=O)c1nnc(C)n1-2 (stereo partly drawn) [dBET42]
IC50 797: 7720 nM
Dmax [2, 4]: 10%
Dmax [2, 3]: 10%

Compound: Cc1sc2c(c1C)C(c1ccc(Cl)cc1)=N[C@@H](CC(=O)NCCCCCC(=O)NCc1cccc3c1C(=O)N(C1CCC(=O)NC1=O)C3=O)c1nnc(C)n1-2 (stereo partly drawn) [dBET37]
IC50 797: 1020 nM
Dmax [2, 4]: 46.4%
Dmax [2, 3]: 46%

Compound: COC(=O)C[C@@H]1N=C(c2ccc(Cl)cc2)c2c(sc(C)c2C(=O)NCCCCCCCCNC(=O)COc2cccc3c2C(=O)N(C2CCC(=O)NC2=O)C3=O)-n2c(C)nnc21 (stereo partly drawn) [dBET26]
IC50 797: 7020 nM
Dmax [2, 4]: 39.9%
Dmax [2, 3]: 40%

Compound: Cc1sc2c(c1C)C(c1ccc(Cl)cc1)=N[C@@H](CC(=O)NCCCOCCCNC(=O)COc1cccc3c1C(=O)N(C1CCC(=O)NC1=O)C3=O)c1nnc(C)n1-2 (stereo partly drawn) [dBET38]
IC50 797: 770 nM

Compound: COc1cc(C(=O)NCCCCCCCCNC(=O)COc2cccc3c2C(=O)N(C2CCC(=O)NC2=O)C3=O)ccc1Nc1ccc2c(n1)N(C1CCCC1)[C@H](C)C(=O)N2C (stereo partly drawn) [dBET45]
IC50 797: 3450 nM

Compound: C[C@]1(N2C(=O)c3cccc(O)c3C2=O)CCC(=O)NC1=O [Compound D-53, (S)-4-hydroxy-2-(3-methyl-2,6-dioxopiperidin-3-yl)isoindoline-1,3-dione]
IC50 (CRBN-DDB1): 56100 nM

Compound: Cc1sc2c(c1C)C(c1ccc(Cl)cc1)=N[C@@H](CC(=O)NCCCCCCOc1cccc3c1C(=O)N(C1CCC(=O)NC1=O)C3=O)c1nnc(C)n1-2 (stereo partly drawn) [dBET29]
Conc@Emax [2]: 0.05 µM
Dmax [2, 4]: 19%
Emax [2]: 75.5%
Dmax [2, 3]: 19%

Compound: COc1cc(C(=O)NCCCOCCOCCOCCCNC(=O)COc2cccc3c2C(=O)N(C2CCC(=O)NC2=O)C3=O)ccc1Nc1ccc2c(n1)N(C1CCCC1)[C@H](C)C(=O)N2C (stereo partly drawn) [dBET46]
IC50 797: 9450 nM

Compound: O=C1CCC(N2C(=O)c3ccc([N+](=O)[O-])cc3C2=O)C(=O)N1 [Compound D-61]
IC50 (CRBN-DDB1): 2660 nM

Compound: Cc1sc2c(c1C)C(c1ccc(Cl)cc1)=N[C@@H](CC(=O)NCCCCNC(=O)CNc1cccc3c1CN(C1CCC(=O)NC1=O)C3=O)c1nnc(C)n1-2 (stereo partly drawn) [dBET35]
IC50 797: 372 nM
Dmax [2, 4]: 11.7%
Dmax [2, 3]: 12%

Compound: Cc1c(C(=O)NCCCCCCCCNC(=O)COc2cccc3c2C(=O)N(C2CCC(=O)NC2=O)C3=O)sc2c1C(c1ccc(Cl)cc1)=N[C@@H](CC(=O)NCCCN1CCN(C)CC1)c1nnc(C)n1-2 (stereo partly drawn) [dBET31]
Emax [2]: 45.6%

Compound: Cc1sc2c(c1C)C(c1ccc(Cl)cc1)=N[C@@H](CC(=O)NCCCCCCC(=O)Nc1cccc3c1CN(C1CCC(=O)NC1=O)C3=O)c1nnc(C)n1-2 (stereo partly drawn) [dBET43]
IC50 797: 2250 nM
Dmax [2, 4]: 13%
Dmax [2, 3]: 13%

Compound: Cc1sc2c(c1C)C(c1ccc(Cl)cc1)=N[C@@H](CC(=O)NCCCCCCCC(=O)Nc1cccc3c1CN(C1CCC(=O)NC1=O)C3=O)c1nnc(C)n1-2 (stereo partly drawn) [dBET44]
IC50 797: 719 nM
Dmax [2, 3]: < 10%

Compound: Cc1sc2c(c1C)C(c1ccc(Cl)cc1)=N[C@@H](CC(=O)NCc1ccc(CNC(=O)COc3cccc4c3C(=O)N(C3CCC(=O)NC3=O)C4=O)cc1)c1nnc(C)n1-2 (stereo partly drawn) [dBET41]
IC50 797: 726 nM

Compound: Cc1cnc(Nc2ccc(N3CCN(C(=O)CCCNC(=O)COc4cccc5c4C(=O)N(C4CCC(=O)NC4=O)C5=O)CC3)cc2)nc1Nc1cccc(S(=O)(=O)NC(C)(C)C)c1 (stereo not drawn) [dBET20]
IC50 797: 14700 nM
Dmax [2, 4]: 7.04%
Dmax [2, 3]: < 10%

Compound: O=C1CCC(N2C(=O)c3cccc(O)c3C2=O)C(=O)N1 [Compound D-1, 2-(2,6-dioxopiperidin-3-yl)-4-hydroxyisoindoline-1,3-dione]
IC50 [1]: > 50000 nM

Continued, in another order:

IC50 (CRBN-DDB1): 619 nM
IC50 [1]: > 50000 nM
Compound: O=C1CCC(N2C(=O)c3ccc(C(=O)NCc4ccccc4)cc3C2=O)C(=O)N1 [Compound D-15, N-benzyl-2-(2,6-dioxopiperidin-3-yl)-1,3-dioxoisoindoline-5-carboxamide]

IC50 (CRBN-DDB1): 71.4 nM
Compound: O=C1CCC(N2C(=O)c3cccc(NCc4ccccc4)c3C2=O)C(=O)N1 [Compound D-16, 4-(benzylamino)-2-(2,6-dioxopiperidin-3-yl)isoindoline-1,3-dione]
Nluc/Fluc IKZF1 Max Degradation [1]: 67.23

IC50 (CRBN-DDB1): > 50000 nM
Compound: C[C@@]1(N2C(=O)c3cccc(OCC(=O)O)c3C2=O)CCC(=O)NC1=O [Compound D-54, (R)-2-((2-(3-methyl-2,6-dioxopiperidin-3-yl)-1,3-dioxoisoindolin-4-yl)oxy)acetic acid]

IC50 (CRBN-DDB1): 1170 nM
Compound: O=C1CCC(N2C(=O)c3c(Cl)ccc(Cl)c3C2=O)C(=O)N1 [Compound D-51, 4,7-dichloro-2-(2,6-dioxopiperidin-3-yl)isoindoline-1,3-dione]

IC50 (CRBN-DDB1): 266 nM
IC50 [1]: > 50000 nM
Compound: CC(=O)Nc1ccc2c(c1)C(=O)N(C1CCC(=O)NC1=O)C2=O [Compound D-5, N-(2-(2,6-dioxopiperidin-3-yl)-1,3-dioxoisoindolin-5-yl)acetamide]

IC50 (CRBN-DDB1): 1120 nM
Compound: COC(=O)COc1cccc2c1C(=O)N(C1CCC(=O)NC1=O)C2=O [Compound D-65]

IC50 (CRBN-DDB1): 25.3 nM
Compound: CC(C)Nc1cccc2c1C(=O)N(C1CCC(=O)NC1=O)C2=O [Compound D-18, 2-(2,6-dioxopiperidin-3-yl)-4-(isopropylamino)isoindoline-1,3-dione]
Nluc/Fluc IKZF1 Max Degradation [1]: 41.1

IC50 (CRBN-DDB1): 646 nM
Compound: CC(=O)NCc1cccc2c1C(=O)N(C1CCC(=O)NC1=O)C2=O [Compound D-23, N-((2-(2,6-dioxopiperidin-3-yl)-1,3-dioxoisoindolin-4-yl)methyl)acetamide]
Nluc/Fluc IKZF1 Max Degradation [1]: 59.03

IC50 (CRBN-DDB1): 40.1 nM
Compound: O=C1CCC(N2C(=O)c3ccc(NCc4ccco4)cc3C2=O)C(=O)N1 [Compound D-28, 2-(2,6-dioxopiperidin-3-yl)-5-((furan-2-ylmethyl)amino)isoindoline-1,3-dione]

IC50 (CRBN-DDB1): 3060 nM
Compound: O=C1CCC(N2C(=O)c3cccc([N+](=O)[O-])c3C2=O)C(=O)N1 [Compound D-56]

IC50 (CRBN-DDB1): 715 nM
Compound: O=C1CCC(N2C(=O)c3ccc(Br)cc3C2=O)C(=O)N1 [Compound D-58]

IC50 (CRBN-DDB1): 21.4 nM
Compound: O=C1CCC(N2C(=O)c3ccc(NC(=O)CCl)cc3C2=O)C(=O)N1 [Compound D-32, 2-chloro-N-(2-(2,6-dioxopiperidin-3-yl)-1,3-dioxoisoindolin-5-yl)acetamide]

IC50 [1]: > 50000 nM
Compound: O=C1CCC(N2C(=O)c3ccc(C(=O)O)cc3C2=O)C(=O)N1 [Compound D-13, 2-(2,6-dioxopiperidin-3-yl)-1,3-dioxoisoindoline-5-carboxylic acid]

IC50 (CRBN-DDB1): 140 nM
Compound: CC(C)(C)OC(=O)NCCNc1cccc2c1C(=O)N(C1CCC(=O)NC1=O)C2=O [Compound D-29, tert-butyl (2-((2-(2,6-dioxopiperidin-3-yl)-1,3-dioxoisoindolin-4-yl)amino)ethyl)carbamate]

IC50 (CRBN-DDB1): > 50000 nM
Compound: CCOc1cccc2c1C(=O)N(C1CCC(=O)N(CC)C1=O)C2=O [Compound D-59]

IC50 (CRBN-DDB1): > 50000 nM
Compound: C[C@]1(N2C(=O)c3cccc(OCC(=O)O)c3C2=O)CCC(=O)NC1=O [Compound D-55, (S)-2-((2-(3-methyl-2,6-dioxopiperidin-3-yl)-1,3-dioxoisoindolin-4-yl)oxy)acetic acid]

IC50 (CRBN-DDB1): 259 nM
Compound: CCOc1cccc2c1C(=O)N(C1CCC(=O)NC1=O)C2=O [Compound D-60]

IC50 (CRBN-DDB1): 2130 nM
Compound: O=C(O)COc1cccc2c1C(=O)N(C1CCC(=O)NC1=O)C2=O [Compound D-64]
